Broadly, the melting point is the temperature, or range, at which the solid turns liquid. What is called IC50 is the concentration needed to halve the response being measured. Broadly, the pKa is the pH at which an ionisable group is half protonated.

Data set [1] concerns the target T1, GluN1/2A receptors (Rattus norvegicus, UniProt P35439+Q00959).
T1 construct: expressed in transfected cells; host or cells: tsA201 cells (HEK 293 variant)
Nature of the data set: MCI protocol, whole-cell recording from GluN1/2A NMDAR-expressing tsA201 cells. Format: cell-based. How it is done:
(§1) Wildtype or mutant GluN1/2A receptors were used for all tsA201 cell experiments. 12–24 h after plating, tsA201 cells were transiently co-transfected using FuGENE6 Transfection Reagent (Promega) with mammalian expression plasmids that contained cDNAs encoding enhanced green fluorescent protein (EGFP in pRK7) for identification of transfected cells, the rat GluN1-1a subunit (referred to as GluN1; GenBank X63255 in pcDNA3.1), and the rat GluN2A subunit (GenBank M91561 in pcDNA1). For some experiments cells were transfected with GluN1 and EGFP:pIRES:GluN2A (a generous gift from Dr. Kasper Hansen (Hansen, unpublished)), which was constructed by inserting EGFP in pIRES (Clontech) under transcriptional control of the CMV promoter, and rat GluN2A cDNA (GenBank D13211) after the IRES sequence. Voltage clamp recordings were performed on tsA201 cells 12–48 h after transfection.
(§2) Pipettes were pulled from borosilicate capillary tubing (Sutter Instruments) on a Flaming Brown P-97 microelectrode puller (Sutter Instruments) and polished with a heated filament to a resistance of 2–5 MΩ. Whole-cell recordings were made from cells expressing eGFP identified by epifluorescence illumination on an inverted Zeiss Axiovert microscope. Cells were held at a Vm of −65 mV (corrected for a liquid junction potential of −6 mV) unless otherwise indicated. Whole-cell currents were recorded using an Axopatch 200B patch-clamp amplifier (Molecular Devices). Series resistance was compensated 80–90% using the prediction and correction circuitry. […] NMDAR responses were activated by fast perfusion of 1 mM glutamate (tsA201 cells) or 100 μM NMDA (cultured neurons).
Solutions were delivered to cells using a ten-barrel fast perfusion system. […] If channel blocker remained in the extracellular solution after the 1-s wash, measurements of MCI could have been contaminated by inhibition due to traditional open channel block.
We averaged minima of IControl2/IControl1 and IControl1/IControl2 to control for any possible rundown or runup of NMDAR response. For pH jump experiments, to control also for possible delayed effects of the pH jump on NMDAR responses, the minimum IMCI/IControl value was measured using an additional set of experiments.

The target in data set [2] is T1, GluN1/2A receptors. The data set can be described thus: Traditional channel block (coapplication of drug and agonists), tsA201 cells. The class given is cell-based. As for the experimental part:
as §1, §2

Another data set has as its system cultured neurons. Details: method as in PMID 8570022. The settings on record: cultured neurons held at −70 mV; read-out: IC50 (previous value); cited from earlier work.
For data set [3], the system named is native NMDARs in cultured neurons. The data set can be described thus: MCI protocol, neurons in primary culture. The following applies: 1 μM MK-801, pH 7.2, cultured neurons, 100 μM NMDA. Format: cell-based, rat.
A further data set deals with NMDARs. The following applies: cited from earlier work.
A short description of data set [4]: pKa, charged/uncharged fraction in aqueous solution. Format: physicochemical. From the text:
[36]). […] We tested this prediction by measuring the dependence of MCI on extracellular pH. A similar approach was used to study membrane partitioning of local anesthetics during VGSC inhibition[23],[24],[27].

Data set [5] deals with native NMDARs in cultured neurons. The settings on record: cited from earlier work.
Details of data set [6]: method as in PMID 7086822. The settings on record: measured pKa; cited from earlier work.
The conditions of data set [7]: cited from earlier work.
The test system of a further data set is NMDAR. The settings on record: 30 μM intracellular memantine; cited from earlier work.
Data set [8] addresses T2, GluN1/2A(M630A) receptors (Rattus norvegicus, UniProt P35439+Q00959, M630A). The data set can be described thus: MCI protocol, GluN1/2A(M630A).
Data set [9] addresses T3, GluN1/2A(M630W) receptors (Rattus norvegicus, UniProt P35439+Q00959, M630W). The data set can be described thus: MCI protocol, GluN1/2A(M630W).
Data set [10] concerns the target T2, GluN1/2A(M630A) receptors. Nature of the data set: Traditional [memantine]-inhibition curve, GluN1/2A(M630A).
Data set [11] deals with T3, GluN1/2A(M630W) receptors. Nature of the data set: Traditional [memantine]-inhibition curve, GluN1/2A(M630W).
Where [12] appears, read: constant pH 9.0, 1 mM TMM, 165 μM DMM.
[13] abbreviates: pH 7.2, WT, −65 mV, read-out: traditional IC50.

Counter-ions that a name gives are not always drawn.

T1 sequence (Q00959 23-1464, other chains not shown): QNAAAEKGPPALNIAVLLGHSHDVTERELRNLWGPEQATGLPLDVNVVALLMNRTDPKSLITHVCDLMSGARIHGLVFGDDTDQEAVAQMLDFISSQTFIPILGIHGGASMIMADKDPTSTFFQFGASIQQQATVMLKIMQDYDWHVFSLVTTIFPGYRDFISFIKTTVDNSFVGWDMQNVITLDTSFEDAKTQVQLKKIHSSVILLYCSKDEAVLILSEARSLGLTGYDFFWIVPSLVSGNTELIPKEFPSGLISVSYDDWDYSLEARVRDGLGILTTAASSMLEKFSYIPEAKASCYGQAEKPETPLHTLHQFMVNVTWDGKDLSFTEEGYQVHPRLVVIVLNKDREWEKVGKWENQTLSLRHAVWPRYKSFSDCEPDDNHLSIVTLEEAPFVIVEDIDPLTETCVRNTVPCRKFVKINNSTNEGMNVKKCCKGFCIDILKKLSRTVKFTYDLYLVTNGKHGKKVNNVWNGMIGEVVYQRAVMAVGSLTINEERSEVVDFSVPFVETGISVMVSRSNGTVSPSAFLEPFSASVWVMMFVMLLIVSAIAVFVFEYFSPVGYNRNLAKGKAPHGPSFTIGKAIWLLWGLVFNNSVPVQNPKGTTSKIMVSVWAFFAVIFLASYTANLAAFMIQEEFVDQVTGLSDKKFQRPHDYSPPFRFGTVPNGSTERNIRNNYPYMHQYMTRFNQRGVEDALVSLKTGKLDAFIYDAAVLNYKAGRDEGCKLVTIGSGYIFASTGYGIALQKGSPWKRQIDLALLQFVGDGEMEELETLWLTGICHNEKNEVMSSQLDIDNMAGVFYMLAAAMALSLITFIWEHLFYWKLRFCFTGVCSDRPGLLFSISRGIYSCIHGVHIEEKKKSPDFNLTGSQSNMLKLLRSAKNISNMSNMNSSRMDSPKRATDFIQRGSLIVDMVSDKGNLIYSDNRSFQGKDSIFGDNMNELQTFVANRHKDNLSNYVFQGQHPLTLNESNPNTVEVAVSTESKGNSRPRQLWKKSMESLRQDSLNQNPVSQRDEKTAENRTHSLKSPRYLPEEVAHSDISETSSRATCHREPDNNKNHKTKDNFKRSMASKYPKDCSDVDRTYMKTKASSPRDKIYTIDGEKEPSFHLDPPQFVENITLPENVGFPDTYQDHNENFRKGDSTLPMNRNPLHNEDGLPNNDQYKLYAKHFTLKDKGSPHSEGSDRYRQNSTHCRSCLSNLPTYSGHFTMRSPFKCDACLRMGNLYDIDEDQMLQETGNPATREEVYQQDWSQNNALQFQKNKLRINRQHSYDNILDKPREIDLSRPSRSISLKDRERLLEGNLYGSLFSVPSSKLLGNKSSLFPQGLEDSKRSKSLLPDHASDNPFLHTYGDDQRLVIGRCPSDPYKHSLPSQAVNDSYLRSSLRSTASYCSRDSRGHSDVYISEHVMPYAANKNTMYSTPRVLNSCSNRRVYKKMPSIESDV
T2 sequence (Q00959 23-1464 M630A, other chains not shown): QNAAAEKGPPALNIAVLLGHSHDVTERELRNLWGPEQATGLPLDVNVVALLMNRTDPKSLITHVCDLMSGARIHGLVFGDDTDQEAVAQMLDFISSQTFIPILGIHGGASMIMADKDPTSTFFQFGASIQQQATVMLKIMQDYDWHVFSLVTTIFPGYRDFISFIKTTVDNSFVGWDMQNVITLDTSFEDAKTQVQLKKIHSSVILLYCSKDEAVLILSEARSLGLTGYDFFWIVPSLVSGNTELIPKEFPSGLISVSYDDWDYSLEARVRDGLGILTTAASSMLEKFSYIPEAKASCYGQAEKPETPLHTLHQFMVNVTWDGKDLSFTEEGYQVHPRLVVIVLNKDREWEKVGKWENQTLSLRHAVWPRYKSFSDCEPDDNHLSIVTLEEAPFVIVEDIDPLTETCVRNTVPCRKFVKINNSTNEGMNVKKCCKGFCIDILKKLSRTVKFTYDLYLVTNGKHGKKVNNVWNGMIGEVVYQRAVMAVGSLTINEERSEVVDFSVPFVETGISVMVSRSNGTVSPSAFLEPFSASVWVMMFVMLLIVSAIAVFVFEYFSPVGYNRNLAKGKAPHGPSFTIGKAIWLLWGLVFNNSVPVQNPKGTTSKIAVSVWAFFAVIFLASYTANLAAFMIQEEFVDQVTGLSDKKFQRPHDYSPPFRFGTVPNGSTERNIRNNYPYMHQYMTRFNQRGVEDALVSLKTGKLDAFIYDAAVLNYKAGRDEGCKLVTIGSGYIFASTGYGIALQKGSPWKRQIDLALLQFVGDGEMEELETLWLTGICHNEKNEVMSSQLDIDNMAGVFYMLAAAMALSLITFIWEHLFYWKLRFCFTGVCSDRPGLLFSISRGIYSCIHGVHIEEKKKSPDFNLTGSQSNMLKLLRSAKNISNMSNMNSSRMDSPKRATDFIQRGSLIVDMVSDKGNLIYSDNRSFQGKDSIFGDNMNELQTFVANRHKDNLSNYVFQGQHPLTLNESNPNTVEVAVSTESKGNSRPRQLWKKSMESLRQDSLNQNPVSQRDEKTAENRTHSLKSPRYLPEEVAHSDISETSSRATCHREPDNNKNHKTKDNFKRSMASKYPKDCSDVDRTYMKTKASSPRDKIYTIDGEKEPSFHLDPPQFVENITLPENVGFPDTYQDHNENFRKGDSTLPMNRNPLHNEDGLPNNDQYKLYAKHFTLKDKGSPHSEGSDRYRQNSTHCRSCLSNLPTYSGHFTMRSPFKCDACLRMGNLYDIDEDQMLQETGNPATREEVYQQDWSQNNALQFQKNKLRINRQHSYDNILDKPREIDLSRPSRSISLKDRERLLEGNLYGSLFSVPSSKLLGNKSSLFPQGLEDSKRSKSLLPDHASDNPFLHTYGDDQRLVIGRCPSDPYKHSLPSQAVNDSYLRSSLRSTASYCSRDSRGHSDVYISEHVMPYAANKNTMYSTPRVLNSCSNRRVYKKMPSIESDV
T3 sequence (Q00959 23-1464 M630W, other chains not shown): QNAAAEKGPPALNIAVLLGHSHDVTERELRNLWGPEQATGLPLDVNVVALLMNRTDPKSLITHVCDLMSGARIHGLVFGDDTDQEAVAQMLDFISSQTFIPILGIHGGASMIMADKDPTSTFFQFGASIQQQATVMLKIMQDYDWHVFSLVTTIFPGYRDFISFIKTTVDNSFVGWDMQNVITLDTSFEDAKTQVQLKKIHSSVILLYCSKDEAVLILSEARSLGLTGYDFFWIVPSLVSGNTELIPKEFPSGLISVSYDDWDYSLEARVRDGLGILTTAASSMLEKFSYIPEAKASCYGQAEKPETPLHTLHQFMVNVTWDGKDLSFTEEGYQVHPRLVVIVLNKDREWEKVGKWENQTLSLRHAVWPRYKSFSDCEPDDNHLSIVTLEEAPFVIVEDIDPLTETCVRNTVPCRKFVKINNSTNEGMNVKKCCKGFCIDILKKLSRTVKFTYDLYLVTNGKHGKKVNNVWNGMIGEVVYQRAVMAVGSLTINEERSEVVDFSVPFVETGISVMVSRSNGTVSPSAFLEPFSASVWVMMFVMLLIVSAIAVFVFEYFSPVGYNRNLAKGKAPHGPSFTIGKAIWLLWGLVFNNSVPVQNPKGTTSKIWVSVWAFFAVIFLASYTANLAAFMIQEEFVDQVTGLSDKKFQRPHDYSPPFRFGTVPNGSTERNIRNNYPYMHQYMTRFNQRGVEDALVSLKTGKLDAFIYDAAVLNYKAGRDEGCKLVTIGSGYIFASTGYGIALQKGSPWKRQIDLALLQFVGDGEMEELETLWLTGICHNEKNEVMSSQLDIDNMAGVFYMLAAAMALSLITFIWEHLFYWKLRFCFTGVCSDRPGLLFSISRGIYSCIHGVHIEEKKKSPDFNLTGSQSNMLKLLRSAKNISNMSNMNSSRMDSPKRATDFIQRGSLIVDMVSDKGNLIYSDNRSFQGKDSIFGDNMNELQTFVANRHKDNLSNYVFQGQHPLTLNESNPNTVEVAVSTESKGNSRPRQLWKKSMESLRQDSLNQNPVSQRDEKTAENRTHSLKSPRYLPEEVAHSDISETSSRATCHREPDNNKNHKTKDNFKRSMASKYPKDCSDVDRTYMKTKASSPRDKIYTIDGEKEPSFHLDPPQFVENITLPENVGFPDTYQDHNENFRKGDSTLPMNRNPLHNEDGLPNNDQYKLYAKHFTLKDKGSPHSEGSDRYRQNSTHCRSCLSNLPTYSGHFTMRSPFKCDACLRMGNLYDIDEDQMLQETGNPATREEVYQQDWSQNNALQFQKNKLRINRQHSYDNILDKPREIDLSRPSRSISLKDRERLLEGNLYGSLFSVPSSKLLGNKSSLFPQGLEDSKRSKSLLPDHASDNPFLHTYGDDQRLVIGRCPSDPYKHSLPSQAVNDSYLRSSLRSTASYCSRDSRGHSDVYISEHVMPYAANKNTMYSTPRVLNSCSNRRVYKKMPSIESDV

Consider `CC12CC3CC(C)(C1)CC([N+](C)(C)C)(C3)C2` (as salt: iodide) [TMM, N,N,N,3,5-pentamethyladamantan-1-ammonium iodide], for which the melting point was > 200 °C (dec.).

`CN(C)C12CC3CC(C)(CC(C)(C3)C1)C2.Cl` [DMM, N,N,3,5-tetramethyladamantan-1-amine hydrochloride] gave a melting point of 180 °C. Besides, the “Min IMCI/IControl” value at GluN1/2A receptors [1] (165 μM DMM, constant pH 9.0) is reported as 0.402 ± 0.037. Also, the “MCI exhibited (in words)” value at GluN1/2A receptors [1] (setting [12]) is “strong MCI”. In addition, the IC50 at GluN1/2A receptors [2] (setting [13]) is 16.8 ± 1.5 µM. The IC50 in the data set on cultured neurons is 28.4 ± 1.4 µM.

In the case of `C[C@]12N[C@H](Cc3ccccc31)c1ccccc12` [MK-801], the “Min IMCI/IControl” value was determined as 0.459 ± 0.035 at GluN1/2A receptors [1] (1 μM MK-801, pH 7.2); 0.097 ± 0.029 on GluN1/2A receptors [1] (10 μM MK-801, pH 7.2); 0.612 ± 0.019 in data set [3]. In addition, the “τM of MCI onset” value at GluN1/2A receptors [1] (1 μM MK-801, pH 7.2) is 1002 ± 135 ms; at GluN1/2A receptors [1] (10 μM MK-801, pH 7.2), 311 ± 59 ms. Besides, the “MCI exhibited (in words)” value on GluN1/2A receptors [1] (pH 7.2) is “displayed MCI”. The “τM faster at 10 μM than at 1 μM MK-801” value on GluN1/2A receptors [1] (pH 7.2) is listed as ~ 3 fold.

`c1ccc(C2(N3CCCCC3)CCCCC2)cc1` [PCP, phencyclidine]: the “Min IMCI/IControl” value at GluN1/2A receptors [1] (10 μM PCP, pH 7.2) was found to be 0.409 ± 0.063. Moreover, the “MCI exhibited (in words)” value on GluN1/2A receptors [1] (pH 7.2) is given as “displayed MCI”.

As to `CC12CC3CC1(C)C1(C)CC3(CN)CC21C` [RL-208], on GluN1/2A receptors [1] (20 μM RL-208, pH 7.2), the “Min IMCI/IControl” value was 0.275 ± 0.017. For the same compound, the “MCI exhibited (in words)” value on GluN1/2A receptors [1] (pH 7.2) was “displayed MCI”.

For the compound `CC12CC3CC(C)(C1)CC([N+](C)(C)C)(C3)C2` [TMM, N,N,N,3,5-pentamethyladamantan-1-ammonium iodide], on GluN1/2A receptors [1] (1 mM TMM, constant pH 9.0), the “Min IMCI/IControl” value is recorded as 0.987 ± 0.039. Besides, the “MCI exhibited (in words)” value on GluN1/2A receptors [1] (setting [12]) is “no MCI”. The IC50 on GluN1/2A receptors [2] (setting [13]) was found to be 72.3 ± 14.2 µM.

In the case of `CN1CC[C@@]23CCCC[C@@H]2[C@@H]1Cc1ccc(O)cc13` [dextrorphan], at GluN1/2A receptors [1] (50 μM dextrorphan, pH 7.2), the “Min IMCI/IControl” value came out at 0.549 ± 0.043. For the same compound, the “MCI exhibited (in words)” value on GluN1/2A receptors [1] (pH 7.2) is on record as “displayed MCI”.

As for `CNC1(c2ccccc2Cl)CCCCC1=O` (stereo not shown) [ketamine], the “MCI exhibited (in words)” value in the data set on NMDARs is “does not exhibit MCI”.

As to `CC12CC3CC(C)(C1)CC(N)(C3)C2` [memantine], on GluN1/2A receptors [1] (100 μM memantine, pH 7.2, from point-by-point ratios), the “time constant of current decay following the preinhibition peak” value stood at 46.4 ± 4.1 ms. Besides, the “time constant of MCI onset” value on GluN1/2A receptors [1] (100 μM memantine, pH 7.2, likely faster than decay time constant) is on record as less than 46.4 ms. For the same compound, the IC50 on GluN1/2A receptors [1] (Memantine MCI IC50, pH 7.2 (Fig. 1h data set)) came out at 71 ± 1.7 µM; at GluN1/2A receptors [1] (Memantine MCI IC50, pH 9.0 jump) it was 8.77 ± 3.26 µM; on GluN1/2A receptors [1] (Memantine MCI IC50 of WT receptors, pH 7.2 (additional data set, Fig. 6h)) it was 68.6 ± 4.8 µM; on GluN1/2A receptors [2] (traditional IC50, pH 7.2, WT, −65 mV) it was 1.71 ± 0.06 µM; on GluN1/2A receptors [2] (traditional IC50, pH 9.0, WT), 3.43 ± 0.61 µM; in data set [8], 51.4 ± 5.1 µM. Moreover, the IC50 is 148 ± 2.8 µM in [9], 1.65 ± 0.09 µM in [10] and 1.49 ± 0.2 µM in data set [11]. The potency estimated from few doses at GluN1/2A receptors [1] (tsA201, pH 6.3, read-out: Memantine MCI IC50) was 841 ± 5 µM. In addition, the Uncharged % in data set [4] (pH 6.3) is recorded as 0.008%; in data set [4] (pH 7.2), 0.063%; in data set [4] (pH 9.0), 3.8%. Further, the “[Uncharged] at 100 μM” value in [4] (pH 6.3) was 8 nM; in data set [4] (pH 7.2), 63 nM; in [4] (pH 9.0), 3800 nM. The “MCI of native NMDARs (in words)” value in data set [5] is on record as “subject to MCI”. Besides, the pKa in data set [6] was 10.4. Besides, the LogP in data set [7] was ~ 3. The “MCI at depolarized Vm (in words)” value in the data set on NMDARs (100 μM memantine, 35 mV) is given as “nearly abolished”. In the data set with NMDAR, the “NMDAR inhibition by intracellular drug (in words)” value was “not to cause NMDAR inhibition”.
